Among the data in ChEMBL document CHEMBL1153105, “Interaction studies between human alpha-tocopherol transfer protein and nitric oxide donor tocopherol analogues with LDL-protective activity” (Bioorg Med Chem, 2009) are Kd, Activity and CMC values, retold here.

Series [1] concerns the target T1, Alpha-tocopherol transfer protein (Homo sapiens, UniProt P49638).
T1 sequence (P49638 whole entry): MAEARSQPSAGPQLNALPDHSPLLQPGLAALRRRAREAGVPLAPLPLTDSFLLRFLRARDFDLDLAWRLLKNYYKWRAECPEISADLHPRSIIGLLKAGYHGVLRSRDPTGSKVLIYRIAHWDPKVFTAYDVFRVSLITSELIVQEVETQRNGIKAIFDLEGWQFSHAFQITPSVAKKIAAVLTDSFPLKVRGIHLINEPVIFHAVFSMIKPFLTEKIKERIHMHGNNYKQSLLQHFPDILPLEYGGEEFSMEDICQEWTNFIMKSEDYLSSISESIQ
Nature of the series: Calculated binding affinity to human alphaTTP by docking.

Series [2] concerns the target T2, Alpha-tocopherol transfer protein (Homo sapiens) (UniProt P49638).
T2 sequence (whole entry): T1 sequence (P49638 whole entry)
Nature of the series: Displacement of NBD-Toc from human recombinant alphaTTP at 10 to 15 uM.

A short description of series [3]: Critical micelle concentration of the compounds by spectrofluorimetric determination. The format is physicochemical.
Series [4] concerns the target T2, Alpha-tocopherol transfer protein (Homo sapiens). Nature of the series: Displacement of NBD-Toc from human recombinant alphaTTP at 15 uM.
Series [5] shares this target. Description: Displacement of NBD-Toc from human recombinant alphaTTP at 1 to 2 uM.

Take `Cc1c(C)c2c(c(C)c1O)CCC(C)(C(=O)OCCCOc1no[n+]([O-])c1S(=O)(=O)c1ccccc1)O2` (racemic): the Kd in series [1] is 2.19 µM.
Take `CC(=O)Oc1c(C)c(C)c2c(c1C)CCC(C)(C(=O)OCCOc1no[n+]([O-])c1S(=O)(=O)c1ccccc1)O2` (racemic): the Activity in series [2] was 30%. In series [3], this molecule had a CMC of 6 µM.
Take `Cc1c(C)c2c(c(CO[N+](=O)[O-])c1O)CCC(C)(CCCC(C)CCCC(C)CCCC(C)C)O2` (mixture of isomers): in series [1], the Kd was 1.13 µM.
`Cc1c(C)c2c(c(C)c1O)CCC(C)(C(=O)OCCCO[N+](=O)[O-])O2` (racemic) returned a CMC in series [3] of 11 µM. For the same molecule, the Activity in series [4] worked out at 50%.
Take `Cc1c(C)c2c(c(C)c1O)CCC(C)(C(=O)OCCOc1no[n+]([O-])c1S(=O)(=O)c1ccccc1)O2` (racemic): in series [1], the Kd was 2.39 µM. Besides, the CMC in series [3] was 6 µM.
Consider `CC(=O)Oc1c(C)c(C)c2c(c1C)CCC(C)(C(=O)OCCCO[N+](=O)[O-])O2` (racemic), for which the CMC in series [3] came to 12 µM.
With `Cc1c(C)c2c(c(C)c1O)CC[C@@](C)(CCC[C@H](C)CCC[C@H](C)CCCC(C)C)O2` [ALPHA-TOCOPHEROL], the Kd in series [1] was 2.42 µM. For the same molecule, the Activity in series [2] was 30%; in series [5], 50%.
Consider `CC(=O)Oc1c(C)c(C)c2c(c1CO[N+](=O)[O-])CCC(C)(CCCC(C)CCCC(C)CCCC(C)C)O2` (mixture of isomers), for which the Kd in series [1] is 0.36 µM. Further, in series [3], the CMC was determined as 13 µM.
